Measured values reported in US20090155180A1, “Methods and targets for identifying compounds for regulating rhinovirus infection” (priority 2007, published 2009).
Read-outs that look alike come from different tables or passages of the source.

Legend:
IP-10 (CXCL10) = experiment: IP-10 level in BEAS-2B cells infected with rhinovirus RV-16; type: cell-based, human; conditions: BEAS-2B cells infected with RV-16; test ingredient at 5 μM andrographolide content; control 61.99
Text: An in vitro cell line of BEAS-2B cells can be infected with rhinovirus RV-16. The cells are then exposed to various compounds and extracts and subsequently levels of respiratory biomarker proteins can be assayed. Extracts and compounds are identified as regulating the respiratory biomarker proteins by monitoring the levels of the respiratory biomarker proteins after exposure of the infected cells to the extracts and compounds and comparing to the levels of the respiratory biomarker proteins in infected cells that have not been exposed to extracts and compounds.
In the example, the test ingredients are extracts of the herb andrographis paniculata, or its principal component, andrographolide. The test ingredients are tested at a level of 5 μM andrographolide content. The respiratory biomarker protein is IP-10 (CXCL10), a chemotactic agent.

NF-kB [1] = experiment: IL1b-induced NFkB nuclear translocation (Cellomics HitKit), BEAS-2B cells; type: cell-based; conditions: Homo sapiens, 0.5 h, IL1b 0.5 ng/ml for 30 min, then inhibitor 30 min
Text: (§1) Because NF-κB must be in the nucleus to induce gene expression, its translocation is a definitive measure of its activation and marks an earlier event than reporter gene expression. This assay is an example of a 96-well medium throughput technology that can detect NF-κB translocation in several cell types.
(§2) Assays may be performed in standard, high-density microplates, where measurements of the rate and extent of NF-κB translocation are made in intact cells which provides more biological representative information. Cellomics' NF-κB activation kit (Cat. No. K01-001-1) may combine fluorescent reagents and protocols for optimized sample preparation and assays, and requires no cell lysis, purification or filtration steps. After fixation, the plates are stable for extended periods, when stored light-protected at 4° C.
(§3) One may create a fully automated screen to identify compounds that inhibit or activate NF-[…]B on a cell-by-cell basis. Prepared cells can be analyzed using standard fluorescence microscopy or using Cellomics' fully automated HCS Reader with the Cytoplasm to Nucleus Translocation Bioapplication, affording automated plate handling, focusing, image acquisition, analysis, quantification, and data storage.

NF-kB [2] = experiment: IL1b-induced NFkB nuclear translocation (Cellomics HitKit), A549 cells; type: cell-based; conditions: Homo sapiens, 0.5 h, IL1b 0.05 ng/ml for 30 min, then inhibitor 30 min
Text: as §1, §2, §3

ovine COX-1 = target: T1, ovine COX-1 (Ovis aries, UniProt P05979); experiment: COX Inhibitor Screening Assay (Cayman), COX-1; type: biochemical
T1 construct: purchased Cayman Chemical Company 560101
Text: An example of a COX Inhibitor Screening Assay (Cat. No. 560101 manufactured by Cayman Chemical Company, Ann Harbor, Mich.) directly measures PGF2 produced by SnCl2 reduction of COX-derived PGH2. The prostanoid product may be quantified via enzyme immunoassay (EIA) using a broadly specific antibody that binds to all the major prostaglandin compounds. Thus, the COX assay is more accurate and reliable than an assay based on peroxidase inhibition. The Cayman COX Inhibitor Screening Assay includes both ovine COX-1 and human recombinant COX-2 enzymes in order to screen isozyme-specific inhibitors. This assay may be an excellent tool which can be used for general inhibitor screening, or to eliminate false positive leads generated by less specific methods.
(§4) Test compounds may be assayed for inhibition of prostaglandin production via contacting them individually with cells that have been infected with rhinovirus. An assay for prostaglandin is available from Cisbio International, Bedford Mass. One cell line suitable for infection by rhinovirus is A549 (ATCC designation CCL-185), a human epithelial lung carcinoma available from ATCC, Manassas, Va. […] A COX assay is available from Cayman Chemical, Ann Arbor, Mich.

human recombinant COX-2 = target: T2, human recombinant COX-2 (Homo sapiens, UniProt P35354); experiment: biochemical; conditions: purified enzyme
T2 sequence (P35354 18-604): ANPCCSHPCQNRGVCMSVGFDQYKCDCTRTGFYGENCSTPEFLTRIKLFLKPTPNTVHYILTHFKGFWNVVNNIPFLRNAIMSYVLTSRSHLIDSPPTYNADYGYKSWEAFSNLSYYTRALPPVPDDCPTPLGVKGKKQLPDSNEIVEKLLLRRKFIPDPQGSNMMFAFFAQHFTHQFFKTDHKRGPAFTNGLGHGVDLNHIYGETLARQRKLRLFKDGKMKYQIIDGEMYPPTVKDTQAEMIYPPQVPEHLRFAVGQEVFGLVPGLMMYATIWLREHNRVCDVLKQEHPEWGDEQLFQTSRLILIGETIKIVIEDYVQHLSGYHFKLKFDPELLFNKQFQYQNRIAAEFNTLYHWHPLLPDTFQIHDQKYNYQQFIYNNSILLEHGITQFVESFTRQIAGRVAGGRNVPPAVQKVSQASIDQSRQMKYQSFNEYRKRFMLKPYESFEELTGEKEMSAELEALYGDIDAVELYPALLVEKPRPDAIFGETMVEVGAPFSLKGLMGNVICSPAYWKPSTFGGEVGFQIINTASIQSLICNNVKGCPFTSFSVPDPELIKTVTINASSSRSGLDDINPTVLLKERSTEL
Text: An example of a COX Inhibitor Screening Assay (Cat. No. 560101 manufactured by Cayman Chemical Company, Ann Harbor, Mich.) directly measures PGF2 produced by SnCl2 reduction of COX-derived PGH2. The prostanoid product may be quantified via enzyme immunoassay (EIA) using a broadly specific antibody that binds to all the major prostaglandin compounds. […] The Cayman COX Inhibitor Screening Assay includes both ovine COX-1 and human recombinant COX-2 enzymes in order to screen isozyme-specific inhibitors.
An assay for prostaglandin is available from Cisbio International, Bedford Mass. One cell line suitable for infection by rhinovirus is A549 (ATCC designation CCL-185), a human epithelial lung carcinoma available from ATCC, Manassas, Va. […] A COX assay is available from Cayman Chemical, Ann Arbor, Mich.

PGE2 formation = PGE2 formation in cells infected with rhinovirus (Cisbio HTRF assay); type: cell-based, human
Text: There are several standard methods available for quantifying PGE2. The HTRF® PGE2 assay (developed by Cisbio International, Cat. No. 62P2APEB) is an example of a highly sensitive method for quantifying PGE2. Its principle is based on HTRF technology (Homogeneous Time-Resolved Fluorescence). It can be performed either in cell supernatants or directly in the presence of whole cells. This method is a competitive immunoassay in which native PGE2 produced by cells, and d2-labelled PGE2 compete for binding to MAb anti-PGE2 labeled with cryptate. The HTRF signal is inversely proportional to the concentration of PGE2 in the calibrator or in the sample. The incubation time and temperature following addition of the HTRF detection reagents has little effect on the assay results providing another level of assay flexibility.
Briefly, consecutive dilutions (within the 0-5000 pg/ml range) of samples may be prepared with the diluent. The reagents are dispensed (as outlined in the protocol) into a 384-well low volume plate (20 ul). Negative and positive controls are included. The plate is covered with a plate sealer and incubated for 5 hours at room temperature or overnight at 4° C. Free PGE2 from the sample competes with […] for binding to the Cryptate conjugated anti-PGE2 antibody. Then the plate is read on a compatible HTRF reader.
as §4

T1 sequence (P05979 25-600): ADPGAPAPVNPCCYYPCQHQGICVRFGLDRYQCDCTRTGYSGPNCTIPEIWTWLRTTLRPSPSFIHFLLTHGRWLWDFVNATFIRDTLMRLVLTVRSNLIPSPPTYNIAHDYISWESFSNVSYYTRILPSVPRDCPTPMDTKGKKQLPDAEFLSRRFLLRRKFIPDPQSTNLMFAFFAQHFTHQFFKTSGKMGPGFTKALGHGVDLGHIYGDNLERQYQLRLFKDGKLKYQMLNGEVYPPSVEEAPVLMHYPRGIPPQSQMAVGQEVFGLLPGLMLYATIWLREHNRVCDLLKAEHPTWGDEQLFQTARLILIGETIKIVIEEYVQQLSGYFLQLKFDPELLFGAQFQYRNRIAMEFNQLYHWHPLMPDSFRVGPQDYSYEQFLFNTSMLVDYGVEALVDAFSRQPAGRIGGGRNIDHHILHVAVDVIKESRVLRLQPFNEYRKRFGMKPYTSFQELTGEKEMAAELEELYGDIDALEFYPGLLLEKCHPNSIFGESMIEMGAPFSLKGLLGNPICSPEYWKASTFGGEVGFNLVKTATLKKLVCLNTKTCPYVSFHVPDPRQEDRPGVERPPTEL

Compound: C=C1CC[C@@H]2[C@](C)(CO)[C@H](O)CC[C@@]2(C)[C@@H]1C/C=C1/C(=O)OC[C@H]1O [Andrographolide, andrographolide]
- IP-10 (CXCL10) (IP-10 (CXCL10)): 18.07 pg/mL

Compound: COc1cc(/C=C/C(=O)CC(=O)/C=C/c2ccc(O)c(OC)c2)ccc1O [Curcumin, curcumin]
- IC50 (NF-kB [1]): 5.9 µM
- IC50 (NF-kB [2]): 37.5 µM

Compound: CCCc1ccc(O)c(OC)c1 [DIHYDROEUGENOL, dihydroeugenol]
- IC50 (ovine COX-1; purified enzyme, read-out: IC50 COX-1 activity): 82 µM
- IC50 (human recombinant COX-2): 75 µM
- IC50 (PGE2 formation; cells infected with rhinovirus (A549 named as suitable line), read-out: IC50 PGE2 formation): 0.38 µM

Compound: CCOc1ccc2c(c1)C(C)=CC(C)(C)N2 [ETHOXYQUIN, ethoxyquin]
- IC50 (ovine COX-1): 459 µM
- IC50 (human recombinant COX-2): 54 µM
- IC50 (PGE2 formation; Homo sapiens, cells infected with rhinovirus (A549 named as suitable line), read-out: IC50 PGE2 formation): 0.03 µM

Compound: C=CCc1ccc(O)c(OC)c1 [EUGENOL, eugenol]
- IC50 (ovine COX-1): 42 µM
- IC50 (PGE2 formation; Homo sapiens, A549, read-out: IC50 PGE2 formation): 0.42 µM
